Results: patent publication US7183255B2, “Method for stabilizing blood pressure in hemodialysis subjects” (Intradialytic Pharmaceuticals, priority 2003, dated 2007)

Assays:
Type in all cases: in vivo, human
[1] = tested on: ESRD patients during hemodialysis; assay: Similar study of fluid removal by hemodialysis with AVP vs placebo (FIG. 7); details: five patients on AVP (FIG. 7)
Excerpt: FIG. 7 depicts greater fluid removal by hemodialysis with AVP.

[2] = tested on: hypertensive patients with ESRD on chronic hemodialysis; assay: Randomized double-blinded trial of vasopressin vs placebo during hemodialysis with 0.5 kg increased target weight reduction (Example 3); details: vasopressin 0.3 mU·kg^−1·min^−1 during dialysis; for Lowest SAP: p=0.02 vs placebo; for Symptomatic hypotensive episodes: one of eleven patients, p=0.001 vs placebo
Experimental: All patients were studied at regularly scheduled dialysis sessions. Patients underwent conventional hemodialysis with hollow fiber high flux polysulfone dialyzers on volumetric dialysis machines (Cobe Centrysystem 3, Gambro Renal Care Products, Inc., Lakewood, Colo.). Dialysis times were 3.5–4.5 hours. Blood flow was 300–400 mL/min and dialysate was delivered at 600 mL/min. The dialysis bath contained potassium, 2 mEq/L; calcium, 2.5 mEq/L; magnesium, 0.75 mEq/L; and bicarbonate, 40 mEq/L. In those patients who were prescribed dialysate sodium modeling and/or reduced dialysate temperature (35–37° C.) prior to the study, the parameters of these interventions were held constant throughout the study. Ultrafiltration was performed at a constant rate based on the target weight loss for that dialysis session. Oscillometric blood pressure and heart rate measurements were taken at 15–30 minute intervals.
Exclusion criteria for all studies were: 1) active vascular disease, including angina, claudication, transient ischemic events, ischemic colitis and Raynaud's disease, 2) a history of prolonged QT syndrome, 3) a history of orthostatic hypotension and 4) a systolic blood pressure greater than 200 mm Hg and/or a diastolic blood pressure greater than 100 mm Hg. Fluid was administered for pressor support at the discretion of the dialysis staff, blinded to the study drug, on the basis of hypotensive episodes during dialysis. Excess fluid removed was defined as the difference between the baseline prescription weight loss and the actual weight loss achieved during the study hemodialysis.
Hemodialysis-induced fluid removal during vasopressin administration in hypertensive patients. 22 patients with ESRD on chronic hemodialysis and hypertension (defined by a systolic arterial pressure greater than 140 mm Hg or the requirement of anti-hypertensive medications to maintain a lower systolic arterial pressure) were studied. A randomized, controlled and double blinded trial compared the effect of vasopressin (0.3 mU·kg^−1·min^−1) or placebo (normal saline) on the capacity to tolerate a 0.5 kg increase in the target weight reduction specified by the standard dialysis prescription. Patients were studied only if their pre-dialysis weight was within ±1 kg. of the mean pre-dialysis weight of the previous three sessions.
Otherwise the hemodialysis routine was unchanged and its management was left to the health care personnel performing the treatment, who where not involved in the study. The nurse administering the hemodialysis treatment managed hypotensive episodes per routine with administration of normal saline and/or a decrease in ultrafiltration rate. Symptomatic hypotension was identified by the nurse conducting the dialysis and criteria included a sudden drop in systolic arterial pressure associated with one or more of the following: lightheadedness, dizziness, cramping, nausea and vomiting.
Statistical Analyses. Analyses were performed using Statistical Package for the Social Sciences, version 9. Changes in hemodynamic parameters within patients during each session and between sessions were analyzed by repeated measures of ANOVA. Analysis of continuous variables between treatment arms was performed using the Friedman (two-way) analysis of variance. All values are expressed as mean±SE unless otherwise stated. P values of less than […] (two-tailed) were considered statistically significant.
Effect of vasopressin administration during increased hemodialysis-induced luid removal. […]

normal subjects = assay: Systolic arterial pressure during AVP infusion in normal subjects (Example 1); details: for systolic arterial blood pressure: normals, n=12, M ± SD
Experimental: (§1) Healthy controls and patients with end-stage renal disease (e.g. defined as creatinine clearance of less than 10 ml/min) were studied. The studies were conducted on regularly scheduled hemodialysis days. The duration of hemodialysis remained the same as that prescribed prior to the study period. AVP or placebo (normal saline) was administered at a constant rate of 0.15, 0.3 or o.6 mU/kg/min through a venous line (controls) or through the venous limb of the dialysis circuit (hemodialysis patients). The patient's hemodialysis prescription remained unchanged except for the administration of AVP or placebo. Intradialytic hypotension was treated in the customary manner with the infusion of isotonic and hypertonic fluids.
(§2) Serum AVP levels were determined by a radioimmunoassay technique. Blood pressure was measured with a cuff-type sphygmomanometer at 20 minute intervals.
We discovered that patients with ERSD are hypersensitive to vasopressin's pressor action.
The administration of exogenous AVP to patients with ESDR led to the discovery that these patients are hyper-responsive to the vascular effect of this hormone.

[3] = tested on: ESRD patients during hemodialysis; assay: Systolic arterial pressure during hemodialysis with AVP infusion vs vehicle, twelve patients (Example 1); details: for systolic arterial pressure: dialysis with AVP infused, M ± SD
Experimental: as §1, §2
AVP administration results in a higher intra-dialysis blood pressure. To examine whether vasopressin could help in supporting blood pressure during dialysis, we dialyzed a group of ESRD patients during administration of vehicle or during administration of vasopressin at a dose without pressor effect in normal subjects.
To determine the blood pressure effect of exogenous AVP during dialysis, two dialysis treatments were administered to twelve patients. In one, only the vehicle used to administer AVP was given while in the other treatment, AVP was infused. As shown, systolic arterial pressure decreased more than 10 mm Hg during the control dialysis while it decreased a maximum of 5 mm Hg during the dialysis in which AVP was infused.

In the case of NC(=O)CC[C@@H]1NC(=O)[C@H](Cc2ccccc2)NC(=O)[C@H](Cc2ccc(O)cc2)NC(=O)[C@@H](N)CSSC[C@@H](C(=O)N2CCC[C@H]2C(=O)N[C@@H](CCCN=C(N)N)C(=O)NCC(N)=O)NC(=O)[C@H](CC(N)=O)NC1=O [AVP, 8-arginine vasopressin], the “blood pressure stability and extra fluid removal” value [1] is reported as “the blood pressure was stable and extra fluid removal was possible”, the “Mean SAP during dialysis” value ([2]; 11 patients, mean±SE) is reported as 145 ± 6 mmHg and the “Lowest SAP” value ([2]; 11 patients, mean±SE, listed as Vasopressin) is reported as 130 ± 7 mmHg. For the same compound, the “Lowest SAP” value ([2]; 11 patients, mean±SE, listed as vasopressin) was 130±7 mmHg, the “Maximum drop in SAP from mean” value ([2]; 11 patients, mean±SE, p=0.03 vs placebo, listed as Vasopressin) was 17 ± 2 mmHg and the “Maximum drop in SAP from mean” value ([2]; 11 patients, mean±SE, p=0.03 vs placebo, listed as vasopressin) was 17±2 mmHg. The Symptomatic hypotensive episodes ([2]; listed as Vasopressin) was 9 ± 1%, the Symptomatic hypotensive episodes ([2]; listed as vasopressin) was 9% and the “normal saline administered for pressure support” value ([2]; p=0.03 vs placebo, FIG. 10A) was 40 ± 43 mL. For the same compound, the “volume of extra fluid removed during the dialysis above the baseline prescription” value ([2]; p=0.045 vs. placebo, FIG. 10B) was 460 ± 100 mL, the “pressor action of AVP” value (normal subjects; normal subjects, same dose as in ESRD patients (FIG. 3A)) was “no pressure action” and the “systolic arterial blood pressure” value (normal subjects; 30 minutes of AVP infusion) was 114 ± 10. The “systolic arterial blood pressure” value (normal subjects; 60 minutes of AVP infusion) was 113 ± 10, the “systolic arterial blood pressure” value (normal subjects; 90 minutes of AVP infusion) was 114 ± 10 and the “systolic arterial blood pressure” value (normal subjects; 120 minutes of AVP infusion) was 113 ± 11. For the same compound, the “systolic arterial blood pressure” value (normal subjects; before infusion (baseline)) was 115 ± 13, the “decrease of systolic arterial pressure during dialysis” value ([3]; dialysis in which AVP was infused, control dialysis decreased more than 10 mm Hg) was no more than 5 mm Hg and the systolic arterial pressure ([3]; 30 minutes of dialysis) was 153 ± 25 mm Hg. For the same compound, the systolic arterial pressure ([3]; 60 minutes of dialysis) was 155 ± 29 mm Hg, the systolic arterial pressure ([3]; 90 minutes of dialysis) was 149 ± 30 mm Hg and the systolic arterial pressure ([3]; 120 minutes of dialysis) was 148 ± 30 mm Hg. It also gave a systolic arterial pressure ([3]; 150 minutes of dialysis) of 149 ± 31 mm Hg, a systolic arterial pressure ([3]; 180 minutes of dialysis) of 149 ± 30 mm Hg and a systolic arterial pressure ([3]; before dialysis, twelve patients) of 153 ± 28 mm Hg.
